Measured values taken from patent US20220347294A1, “COMPOSITIONS AND METHODS FOR INCREASING THE EFFICACY OF IMMUNOTHERAPIES AND VACCINES” (The Regents of the University of Michigan, priority 2019, published 2022).

What was measured:
[1] = Fiber gel formation: inulin gel with added natural fibers or excipients; type: physicochemical; conditions: heated at 70° C. for 5 minutes, cooled overnight
Description: FIG. 24: Inulin gel was formed after adding various amounts of natural fibers or excipients. The values shown are the maximum amount of each ingredient that could be added to 23% w/w inulin gel without disrupting the gel formation.
Experiments were next conducted involving the formation of new fiber gels by combining inulin with other natural dietary fibers or pharmaceutical excipients. Briefly, inulin gels were manufactured by first mixing 23% w/w inulin together with other excipients, including resistant potato starch, pectin, guar gum, bean gum, gelatin, or glycerol. Other natural fibers would provide additional nutrient source for commensal microbiome, while other excipients served as thickening reagents in these formulations. The mixtures were then heated at 70° C. for 5 minutes, followed by cooling at room temperature overnight. During the manufacturing processes, both pre-dissolving and dry-blending were used in order to add the excipients, based on individual dissolutions in water. […] The ingredients were first mixed in water (top panel), heated at 70° C. for 5 minutes (middle panel), followed by cooling at room temperature overnight, leading to the formation of fiber gels (bottom panel) (FIG. 23).
Experiments were next conducted that varied the amount of natural fibers and excipients added to inulin gel and determined the ideal composition for forming fiber gels. […] The indicated values are the maximum amount of each ingredient that could be added to 23% w/w inulin gel without disrupting gel formation.

[2] = test system: AH1-specific CD8+ T cells; assay: Tetramer analysis of AH1-specific CD8+ T cells in PBMCs; type: in vivo, BALB/c mice; conditions: for frequencies of AH1-specific CD8+ T cells among PBMCs, fold greater than α-PD-1 treatment alone: prophylactic oral gavage combined with α-PD-1 IgG, peripheral blood day 22
Description: The effect of these materials were next tested on systemic immune responses. The surrogate marker of tumor specific antigen, MHC-I minimal epitope of CT-26 gp70 (AH1) (H-2L^d-restricted SPSYVYHQF (SEQ ID NO.: 1)), was employed to quantitate the frequency of AH1-specific CD8^+ T cells among peripheral blood mononuclear cells (PBMCs). Mice orally gavaged with inulin and melatonin combined with α-PD-1 IgG induced 1.7-fold and 1.8-fold greater frequencies of AH1-specific CD8^+ T cells, compared with α-PD-1 treatment alone (FIGS. 1E and F).
Peripheral blood mononuclear cells (PBMCs) were collected at preset times to analyze tumor antigen-specific CD8^+ T cells in the systemic circulation. Red blood cells were lysed, and the remaining cells were blocked with anti-CD16/32 antibody for 10 min and stained with peptide-MHC tetramer, including H-2L^d-restricted SPSYVYHQF (SEQ ID NO.: 1) or H-2D^b-restricted ASMTNMELM (SEQ ID NO.: 3). Both the tetramers were provided by NIH Tetramer Core Facility. Cells were also stained anti-CD8-APC (BD Biosciences, #553035) and DAPI for flow cytometric analysis.

CT26 cells [3] = assay: Therapeutic oral gavage plus α-PD-1 in the CT26 tumor model; type: in vivo, BALB/c mice; conditions: for combination efficacy with α-PD-1 against tumor growth after reducing the dosage by half: 60 mg for inulin, 50 mg/Kg for melatonin
Protocol: (A) 1.5×10^5 CT26 cells were inoculated in BALB/c mice subcutaneously (sc) on day 0. Mice were gavaged from day 7 (5 times per week). On days 11, 15, 19 and 23, α-PD-1 was injected intraperitoneally (ip) at 100 μg per dose. (B) The average tumor growth curves for mice gavaged with various compounds. Data represent mean±SEM. (C) Individual tumor growth curves and (D) survival rate curves of various groups. […] All the data are from 2-3 independent experiments; n=10 (B, C, D), n=7-10 (E, F) *p<0.05, **p<0.01, analysed by two-way ANOVA (B), one-way ANOVA (E, F) or log-rank (Mantel-Cox) test.
(B) The average tumor growth curves and individual tumor growth curve for mice gavaged with inulin or inulin gel (60 mg/dosage). 1.5×10^5 CT26 cells were inoculated in BALB/c mice subcutaneously. Gavage started from day 7 (5 times per week) and 100 μg of α-PD-1 was ip injected on days 11, 15, 19, 23 and 27. (C) The survival rate curves of various groups. […] PBS was used as a control. […] Shown are the average and individual tumor growth curves for tumor-bearing mice. IgG antibody was used as a control group. Data represent mean SEM. All the data are from 2-3 independent experiments; n=10 (B, C), n=5 (D, I), n=10-15 (E), n=4-7 (G, F), *p<0.05, **p<0.01, ***p<0.001, analysed by one-way ANOVA (E, F), two-way ANOVA (B, I), or log-rank (Mantel-Cox) test (C).
Female C57BL/6 or BALB/c mice of 6-8-week old were obtained from Jackson Laboratory. BALB/c mice were inoculated with 1.5×10^5 CT26 cells per mouse, while C57BL/6 mice were inoculated with 1.2×10^6 MC38 cells per mouse on the right flank by subcutaneous injection on day 0. Tumor-bearing mice were randomly assigned to different groups on day 5. For prophylactic antitumor study, mice were received oral gavage with melatonin (100 mg/Kg bodyweight/dosage), EGCG (100 mg/Kg bodyweight/dosage), fucoidan (200 mg/Kg bodyweight/dosage), oligofructose (120 mg/dosage), or inulin (120 mg/dosage) three times for one week prior to tumor inoculation. After tumor inoculation, mice received oral gavage three times in the first week, followed by five times per week. Mice were injected i.p. with α-PD-1 antibody (100 μg/dosage) on days 10, 14, 18 and 22 post tumor inoculation. For the therapeutic therapy, mice were inoculated with tumor cells on day 0 as indicated above and treated with the indicated samples by oral gavage starting day 7 post tumor inoculation.

CT26 tumor = assay: Tumor microenvironment analysis (tumor-infiltrating cells, flow cytometry); type: in vivo, BALB/c mice; conditions: combined with α-PD-1 IgG, day 24
Protocol: After treatment with various samples, tumor tissues were excised at preset time points for analysis of tumor-infiltrating T cells. Tumor tissues were excised, cut into small pieces, and incubated with collagenase type IV (1 mg/ml) and of DNase I (0.1 mg/ml) with gentle shaking. After 30 min, cell suspension was filtered through a 70-μm strainer. Cells were washed with FACS buffer and blocked with anti-CD16/32 antibody. Cells were then stained with various antibodies (CD4 Monoclonal Antibody (GK1.5)-PE (eBioscience), APC-Anti-CD45 Rat Monoclonal Antibody (clone: 30-F11), FITC-Anti-CD45 Rat Monoclonal Antibody (clone: 30-F11), FITC-Rat Anti-Mouse CD8a Clone 53-6.7 (BD Biosciences), PE labeled H-2L-restricted SPSYVYHQF (SEQ ID NO.: 1), FITC-Anti-CD86 Rat Monoclonal Antibody (clone: GL-1, BioLegend), PE-CD11c Armenian Hamster anti Mouse (Clone: N418, eBioscience), PE-Cy7-Anti-mouse PD-1 (clone: 29F.1A12, BioLegend), FITC-CD44 Rat anti-Human/Mouse (clone: IM7, eBioscience), PE-Cy7-CD62L Monoclonal Antibody (MEL-14) (eBioscience), PE-Tcf1/Tcf7 (C63D9) Rabbit mAb (Cell Signaling Technology, #14456), PE-Cy7-Anti-mouse CD86 (Clone: GL1, BD Bioscience), FITC anti-mouse/human CD11b (M1/70, BioLegend), PE-anti-mouse F4/80 (BM8, BioLegend), or APC anti-mouse CD206 (MMR, BioLegend)). The cells were washed and stained with DAPI, or 7-AAD, or efluor 450 for flow cytometric analysis.

[4] = SCFAs measurement in fecal pellets; type: in vivo, mice; conditions: oral gavage of inulin
Protocol: Fresh fecal pellets of mice were collected and weighted on day 20 post tumor inoculation and treatments. Fecal pellets were homogenized in DI water and centrifuged at 3000×g for 5 min. The pH of the supernatant was detected by pH meter. For SCFAs measurement, SCFAs were extracted from the fecal pellets using Milli-Q water. The solution was centrifuged for 5 min at 10000×g (4° C.) to pellet bacteria and other solids. The supernatant was collected, and SCFAs were measured via ion chromatography in University of Michigan Biological Station. The concentration of SCFAs was determined using an external standard method.

CT26 cells [5] = assay: Prophylactic oral gavage plus α-PD-1 in the CT26 tumor model; type: in vivo, BALB/c mice
Protocol: FIG. 1A-F: In vivo screening of the candidate materials to prophylactically improve the anti-tumor efficacy of α-PD-1. (A) Mice were prophylactically gavaged various samples on day −7 for three times. Then 1.5×10^5 CT26 cells were inoculated in BALB/c mice subcutaneously (s.c.) on day 0. Mice were gavaged three times again in the first week post tumor inoculation and 5 times per week from day 7. α-PD-1 was i.p. injected on days 10, 14, 18 and 24 at 100 μg/dose. (B) Individual tumor growth curves and (C) average tumor growth curves for mice gavaged with various compounds. (D) Survival rate curves of various groups. (E) The average frequency of AH1-specific CD8^+ T cells in peripheral blood on day 22. (F) The representative scatter plots were measured via flow cytometry. Data represent mean±SEM. *p<0.05, **p<0.01, analyzed by two-way ANOVA (B), or t-test (E), log-rank (Mantel-Cox) test (D).
Among the FDA's list, five candidate materials were selected for the initial screening. Melatonin, found in pineal gland and gastrointestinal tracta, regulates sleep cycle and circadian rhythm. Epigallocatechin gallate (EGCG) is a natural antioxidant in plants. […]
Mice were cared for under the guidelines from federal, state and local. […] Tumor size was measured at preset time, and tumor volume was calculated as length×width^2. […]

gut microbiota = assay: Gut microbiome analysis by 16S rRNA sequencing of fecal pellets; type: in vivo, BALB/c mice
Protocol: FIG. 4A-H: Responses of the diversity, richness, and structure of the gut microbiota. 1.5×10^5 CT26 cells were inoculated in BALB/c mice subcutaneously and gavaged from day 7 (5 times per week). α-PD-1 (100 μg per dose) was ip injected on days 11, 15, 19 and 23. The fecal pellets were collected on day 21 for 16s RNA analysis. (A) OTU number, (B) inverse Simposon diversity and (C) nonmetric multidimensional scaling (NMDS) score plot (based on Bray-Curtis) of gut microbiota in various groups. (D) Relative abundances of the gut microbiota at family level and […] genus level. (F) The relative abundances of lactobacillus, akkermansia, roseburia and Ruminococcus_1 in various groups. (G) The relationship of between the tumor sizes and the relative abundances of lactobacillus, akkermansia, roseburia and Ruminococcus_1. (H) The heatmap of SCFAs (lactate, propionate and butyrate) levels of various groups in fecal pellets. Data represent mean±SEM. *p<0.05, **p<0.01, ****p<0.0001, analysed by one-way ANOVA (A, B, F).
Tumor-bearing mice received treatments as indicated above. […] Pooled amplicon library was then sequenced on the Illumina MiSeq platform using the 500 cycle MiSeq V2 Reagent kit (catalog no. MS-102-2003) according to the manufacturer's instructions with modifications of the primer set with custom read 1/read 2 and index primers added to the reagent cartridge. […]

[6] = Potato starch gel formation; type: physicochemical; conditions: in water, gentle stirring at 70° C., when the swelling was completed
Protocol: FIG. 22: Food grade potato starch was pre-hydrated at concentrations of 0.1, 0.5, 2.5, and 5% w/v in water, followed by gentle stirring at 70° C. After cooling, gel formation was examined.
Experiments were next conducted that examined gel formation using potato starch, another prebiotic natural fiber. The impact of potato starch concentration on gel formation was examined. Food grade potato starch (Bob's Red Mill) was pre-hydrated at desired concentrations of 0.1, 0.5, 2.5, and 5% w/v in water, followed by gentle stirring at 70° C. […] Potato starch was instantly gelatinized at concentrations above 5% w/v when the swelling was completed.

## OCC(O)CO [glycerol]
[1]
  maximum amount of ingredient that could be added to 23% w/w inulin gel without disrupting gel formation: 50 % (w/w)

## COc1ccc2[nH]cc(CCNC(C)=O)c2c1 [melatonin, reference compound]
[2]
  frequencies of AH1-specific CD8+ T cells among PBMCs, fold greater than α-PD-1 treatment alone: 1.8 fold
CT26 cells [3]
  combination efficacy with α-PD-1 against tumor growth after reducing the dosage by half: did not compromise
CT26 tumor
  intratumoral infiltration of T cells compared with α-PD-1 IgG alone: significantly enhanced

## gelatin
[1]
  maximum amount of ingredient that could be added to 23% w/w inulin gel without disrupting gel formation: 5.0 % (w/w)

## guar gum
[1]
  maximum amount of ingredient that could be added to 23% w/w inulin gel without disrupting gel formation: 0.5 % (w/w)

## inulin
[2]
  frequencies of AH1-specific CD8+ T cells among PBMCs, fold greater than α-PD-1 treatment alone: 1.7 fold
[2]; therapeutic setting, day 18 and 24, combined with α-PD-1
  AH1-specific CD8+ T cells among PBMCs: significantly higher
CT26 cells [3]
  combination efficacy with α-PD-1 against tumor growth after reducing the dosage by half: did not compromise
CT26 cells [3]; therapeutic oral gavage from day 7, combined with α-PD-1 IgG
  animal survival: extended animal survival
CT26 cells [3]; therapeutic oral gavage from day 7, combined with α-PD-1 IgG, compared among candidate agents
  anti-tumor efficacy: strongest anti-tumor efficacy
[4]
  concentration of lactate, propionate and butyrate in fecal pellets: increased
CT26 cells [5]; prophylactic oral gavage from one week before tumor inoculation, combined with α-PD-1 i.p. 100 μg/dose
  anti-tumor efficacy compared with α-PD-1 alone: best efficacy
CT26 cells [5]; prophylactic oral gavage, inulin 120 mg/dosage, combined with α-PD-1
  mice still surviving on day 50: 60%
Gut microbiota; oral gavage with α-PD-1
  abundance of Roseburia in the gut: increased
Gut microbiota; oral inulin followed by α-PD-1, compared with α-PD-1 alone or PBS group
  relative abundance of Akkermansia, Lactobacillus, Ruminococcus, and Butyricicoccus: increased
CT26 tumor
  intratumoral infiltration of T cells compared with α-PD-1 IgG alone: significantly enhanced

## pectin
[1]
  maximum amount of ingredient that could be added to 23% w/w inulin gel without disrupting gel formation: 2 % (w/w)

## potato starch
[6]
  concentration at which potato starch was instantly gelatinized: above 5 % w/v
[1]
  maximum amount of ingredient that could be added to 23% w/w inulin gel without disrupting gel formation: 5 % (w/w)
